Results published in PubChem BioAssay AID463229 (Broad Institute, 2010).
Values joined by “and” are separate entries in the source; they are usually repeats but may differ in a detail not shown here. Equal values may be shown once. Active and inactive are the calls of the source.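 How the source made its calls: active means compounds raising the signal whose fitted half-maximal concentration is at or below their top tested dose (cut at about 25 µM in these data); inconclusive means flat fit at 30 to 70% activity, or a poor fit; inactive means the rest.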

Each compound was assayed on INS-1E rat beta cells, no cytokines, CellTiter-Glo ATP, 48 h (assay: cytokine-free beta-cell viability effect – INS-1E rat cells, ATP luminescence, cherry pick, counter-screen for beta-cell apoptosis protection project, dose response (AID 463229)).
`CCc1c(C)sc2nc(C(C)C)nc(SCC(=O)N3CCc4ccccc4C3)c12` was tested, and the AC50 was 2.08 µM.
Compound `O=C(c1cc2sccc2n1Cc1ccccc1)N1CCN(c2nc3ccccc3s2)CC1` has an AC50 of 5.51 µM.
For `C=CCc1cccc(/C=N/NC(=O)c2ccccc2OC)c1O`, the AC50 was 9.61 µM.
Compound `COc1ccc(NS(=O)(=O)c2cccc(NC(=O)c3ccc(S(=O)(=O)N4CCCCCC4)cc3)c2)cc1` has an AC50 of 4.24 µM.
In the case of `FC(F)(F)c1nnc2c(Sc3ccccc3)nc3ccc(Cl)cc3n12`, the AC50 is reported as 11.1 µM.
With `Cc1nnsc1C(=O)N/N=C/c1ccc2ccccc2c1O` the AC50 was 1.81 µM.
Work on `Cc1cccc(NC(=O)/C=C/c2ccc([N+](=O)[O-])s2)c1` yielded an AC50 of 8.56 µM.
`CCOc1ccc(C(Nc2cccnc2)c2cc(Cl)c3cccnc3c2O)cc1` (configuration not stated) gave an AC50 of 7.33 µM.
For `CCCCn1c(=N)n(CC(=O)c2ccc(Br)s2)c2ccccc21`, the AC50 was 13.1 µM.
`COc1ccc(O)c(/C=N/Nc2nc(Nc3ccccc3)nc(-n3nc(C)cc3C)n2)c1` showed an AC50 of 11.3 µM.
`O=C(NCc1cccnc1)Nc1ccc([N+](=O)[O-])cc1` showed an AC50 of 11.8 µM.
`O=C(NC(c1cccnc1)C(F)(F)F)c1cc(COc2ccc3c(c2)CCCC3)on1` (configuration not stated) was tested, and the AC50 was 4.62 µM.
Compound `COc1ccc(C2=NNC(=Nc3cc(S(=O)(=O)N(C)C)ccc3C)SC2)c(OC)c1` has an AC50 of 3.06 µM.
Work on `CCOc1ccc(/C=N/NC(=O)c2[nH]ncc2Br)c(O)c1` yielded an AC50 of 3.66 µM.
Work on `C/C(=N\NC(=O)c1cc(-c2cccs2)nc2ccccc12)c1ccccn1` yielded an AC50 of 1.92 µM.
In the case of `Cc1cccc2sc(NNC(=O)c3ccc(S(=O)(=O)N4CC(C)CC(C)C4)cc3)nc12` (configuration not stated), the AC50 is reported as 6.52 µM.
Work on `Oc1c(C(Nc2ccccn2)c2cccnc2)cc(Cl)c2cccnc12` (configuration not stated) yielded an AC50 of 7.48 µM.
In the case of `C=CC[n+]1c(/C=C2\C=Cc3cc(C)ccc3N2CC)ccc2ccccc21`, the AC50 is reported as less than 0.195 µM.
In the case of `CCOc1ccc(OCc2ccc(C(=O)N/N=C(\C)c3ccccn3)cc2)cc1`, the AC50 is reported as 5.09 µM.
In the case of `O=C(NCc1cccnc1)c1ccc(NC(=O)c2ccc([N+](=O)[O-])cc2)cc1`, the AC50 is reported as 0.215 µM.
`Cc1cc(S(=O)(=O)NCc2ccncc2)c(C)cc1Br` gave an AC50 of 6.19 µM.
For `O=C(CN1CC[n+]2c(-c3cccs3)csc21)c1ccc(-c2ccccc2)cc1`, the AC50 was 2.34 µM.
With `CCCCCCSc1cc(-c2nc3ccc(C)cn3c2NCc2ccccc2)ccc1OC` the AC50 was 6.2 µM.
`[O-]c1ccccc1-[n+]1c(-c2ccccc2)cc(-c2ccccc2)cc1-c1ccccc1` showed an AC50 of 6.87 µM.
`Cc1nc2ccccc2cc1OCc1ccc(F)cc1` was tested, and the AC50 was 6.6 µM.
For `NC(=S)N/N=C/c1ccccc1O`, the AC50 was > 26 µM (inactive).
`O=S(=O)(NCc1ccncc1)c1ccc(Br)s1` was tested, and the AC50 was 4.25 µM.
`CCCCOc1cc(NCc2ccccc2)c2ncn(C(C)C)c2c1` was tested, and the AC50 was 7.26 µM.
With `CC(C)C(=O)NC(c1cccs1)c1cc([N+](=O)[O-])c2cccnc2c1O` (configuration not stated) the AC50 was 9.51 µM.
`O=C(NC(Nc1nc2ccc([N+](=O)[O-])cc2s1)(C(F)(F)F)C(F)(F)F)c1ccccc1` gave an AC50 of 0.367 µM.
Work on `COC(=O)C1=C(c2ccc(OCc3ccccc3)cc2)C[C@@H]2CC[C@H]1N2C(=O)NC1CCN(Cc2ccccc2)CC1` yielded an AC50 of 7.55 µM.
`COC(=O)C1CN(C#N)N(c2ccc(Cl)cc2)C12c1ccccc1-c1ccccc12` (configuration not stated) showed an AC50 of 4.26 µM.
With `COc1cccc(N2CCN(c3ncnc4c3[nH]c3ccc(F)cc34)CC2C)c1` (configuration not stated) the AC50 was 3.09 µM.
In the case of `CC1CCCCC1NS(=O)(=O)c1ccc(S(=O)(=O)NCc2ccncc2)cc1` (configuration not stated), the AC50 is reported as 4.07 µM.
With `C#CC(=O)N(c1cccc(OC)c1)C(C(=O)NC1CCCC1)c1cccs1` (configuration not stated) the AC50 was 14.7 µM.
Work on `Cn1ncc2c(O/N=C(\N)c3ccc(C(C)(C)C)cc3)ncnc21` yielded an AC50 of 6.59 µM.
For `C[C@H]1CCC/C=C/[C@@H]2C[C@H](O)C[C@H]2[C@H](O)/C=C/C(=O)O1`, the AC50 was 0.948 µM and 1 µM.
`CCNC(=O)Nc1cc(S(=O)(=O)Nc2ccc(OC)cc2)ccc1N1CCOCC1` was tested, and the AC50 was 6.84 µM.
Work on `CCOC(=O)N1CCN(S(=O)(=O)c2ccc(C(=O)NNc3nc4c(C)cc(C)cc4s3)cc2)CC1` yielded an AC50 of 11.3 µM.
Compound `C/C(=N/NC(=O)CN(c1ccccc1)S(=O)(=O)c1ccccc1)c1ccccc1O` has an AC50 of 10.2 µM.
With `O=S(=O)([N-]c1nc2ccccc2nc1-[n+]1ccc(Cc2ccccc2)cc1)c1ccc(Br)s1` the AC50 was 12.9 µM.
In the case of `CNC[C@@H](CC1CCCCC1)NC[C@H](CC(C)C)NCCc1cccc(C(F)(F)F)c1`, the AC50 is reported as 4.4 µM.
`C=CCSc1nsc(NC(=O)Nc2ccc(F)cc2)n1` gave an AC50 of 3.4 µM.
`CC1=C(C)/C(=N\OS(=O)(=O)c2ccc(C)cc2)C=CC1=O` was tested, and the AC50 was 4.47 µM.
Compound `Cc1ccc([N+](=O)[O-])cc1N(CC(=O)Nc1ccc(S(=O)(=O)Nc2cccc(C(F)(F)F)c2)cc1)S(C)(=O)=O` has an AC50 of 4.1 µM.
`O=S(=O)(Nc1nc2ccccc2nc1Nc1ccc(N2CCOCC2)cc1)c1cc(Cl)ccc1Cl` was tested, and the AC50 was 6.63 µM.
`O=C(NC1=C(Nc2ccc(Cl)cc2)C(=O)c2ccccc2C1=O)c1ccccc1` showed an AC50 of 21.8 µM.
`CCCC[n+]1ccn(C2=C([O-])c3ccccc3C(=O)/C2=N\S(=O)(=O)c2ccc(Br)cc2)c1` showed an AC50 of 15.2 µM.
`Brc1ccc(N/N=C(/N=Nc2nn[nH]n2)c2ccccc2)cc1` was tested, and the AC50 was 3.51 µM.
`O=S(=O)(c1ccc(F)c(F)c1F)N1CCN(c2ncnc3sccc23)CC1` showed an AC50 of 7.17 µM.
With `O=C(NC(NC(=S)Nc1ccc(Cl)cc1Cl)C(Cl)(Cl)Cl)c1cccc([N+](=O)[O-])c1` (configuration not stated) the AC50 was 7.31 µM.
Work on `Cc1[nH]n(-c2ccc(Br)cc2)c(=O)c1/C=N/NC(=O)c1ccccc1` yielded an AC50 of 2.13 µM.
With `O=C(NCc1cccnc1)/C(=C\c1ccc(-c2ccc(Br)cc2)o1)S(=O)(=O)c1ccccc1` the AC50 was 4.27 µM.
Compound `C=C1[C@@H](O)[C@@H]2O[C@]3(CC[C@H](/C=C/[C@@H](C)[C@@H]4CC(C)=CC5(O[C@H](C[C@@](C)(O)C(=O)OC)CC[C@H]5O)O4)O3)CC[C@H]2O[C@@H]1[C@@H](O)C[C@H](C)[C@H]1OC2(CCCCO2)CC[C@H]1C` (some centres not stated) has an AC50 of less than 0.195 µM.
`COc1ccc(-n2c(-c3ccc(Br)cc3)c[n+]3c2CCCCC3)cc1` showed an AC50 of 1.06 µM.
With `CCOc1ccc2nc(NC(=O)c3cccc(-c4cc5ccccc5oc4=O)c3)sc2c1` the AC50 was 3.31 µM.
Work on `S=c1[nH]nc(-c2cc(-c3ccccc3)n[nH]2)n1/N=C/C(Br)=C/c1ccccc1` yielded an AC50 of 8.81 µM.
Compound `CC(C)C(=O)NC(=S)/C=C1/N(C)c2ccccc2C1(C)C` has an AC50 of 7.7 µM.
In the case of `COc1ccc(-c2ccc3c(c2)S(=O)(=O)c2cccc(C(=O)NCCOc4ccccc4Cl)c2C3=O)cc1OC`, the AC50 is reported as 3.5 µM.
With `COc1cc(/C=N/N=C(N)N)ccc1OCc1ccc(Cl)cc1` the AC50 was 7.22 µM.
In the case of `N#Cc1ccc(-c2csc(NNC(=O)c3ccc(Br)cc3)n2)cc1`, the AC50 is reported as 15.6 µM.
`CC(C)(C)c1ccc(C(=O)Nc2ccc(C(=O)NCc3cccnc3)cc2)cc1` showed an AC50 of less than 0.195 µM.
`COc1ccc2c(c1)c(/C=N/Nc1nc3ccccc3[nH]1)c(C)n2C` was tested, and the AC50 was 14.7 µM.
Compound `CN(C1=C(NC(=O)c2ccccc2)C(=O)c2ccccc2C1=O)C1CCS(=O)(=O)C1` (configuration not stated) has an AC50 of 4.84 µM.
`COC(=O)[C@H](Cc1ccccc1)N(Cc1ccccc1)S(=O)(=O)N(Cc1ccccc1)[C@@H](Cc1ccccc1)C(=O)OC` gave an AC50 of 4.38 µM.
In the case of `Nc1nc(-c2ccccn2)nc(N)c1Cc1c(F)cccc1Cl`, the AC50 is reported as 8.86 µM.
With `Cn1ncc2c(N3CCN(c4ccc(Cl)c(Cl)c4)CC3)ncnc21` the AC50 was 3.37 µM.
For `CCN1CCN(Cc2ccc(NC(=O)c3cc(NC(=O)c4cncc(-c5ccc(C#N)cc5)c4)cc(OC)c3)cc2C(F)(F)F)CC1`, the AC50 was 10.8 µM.
For `CCCCCCc1cc2cc(-c3nnc(-c4ccccc4)o3)c(=O)oc2cc1O`, the AC50 was 7.25 µM.
Work on `O=C(Nc1ccc(OC(F)F)c(Cl)c1)C(c1ccccc1)c1ccccc1` yielded an AC50 of 13 µM.
`CCCOc1ccc(/C=N/Nc2cc(N3CCOCC3)ncn2)c(O)c1` gave an AC50 of 8.02 µM.
Work on `COc1cc(-c2nc3ccc(C)cn3c2NCc2ccccc2)ccc1SC1CCCCC1` yielded an AC50 of 5.49 µM.
Compound `[O-][n+]1onc2c1CCc1c-2nn(-c2ccccc2Cl)[n+]1[O-]` has an AC50 of 7.37 µM.
With `Cc1ccc(Nc2c(-c3ccccn3)nc3cccc(C)n23)cc1` the AC50 was 6.47 µM.
`O=C1C=C(c2cccs2)C[C@H](c2ccccc2)[C@H]1n1nnc([N+](=O)[O-])n1` was tested, and the AC50 was 12.8 µM.
In the case of `COc1ccc(-c2c[n+]3c(n2-c2ccc(C)cc2)CCCCC3)cc1`, the AC50 is reported as 0.317 µM.
`CCN(CC)S(=O)(=O)c1cc([N+](=O)[O-])ccc1NNC(=O)Nc1ccc(Cl)c(Cl)c1` showed an AC50 of 6.54 µM.
Work on `COc1ccc(-c2cn(-c3ccc(OC)cc3)c3[n+]2-c2ccccc2CC3)cc1` yielded an AC50 of 0.806 µM.
`Cc1ccc2c(c1)S/C(=C/c1ccc[n+](C)c1)N2CCO` was tested, and the AC50 was 3.24 µM.
`COc1ccc(/C=N/NC(=O)c2nc(-c3ccccc3)n(-c3ccccc3)n2)c(O)c1` showed an AC50 of 4.37 µM.
In the case of `FC(F)(F)c1ccccc1NC(=S)N1CCN(Cc2ccc3c(c2)OCO3)CC1`, the AC50 is reported as 7.35 µM.
`COc1ccc([N+](=O)[O-])c(S(=O)(=O)c2ccccc2)n1` gave an AC50 of 7.36 µM.
`CCOc1ccc(-n2c(-c3ccccc3)c[n+]3c2CCCCC3)cc1` showed an AC50 of 0.85 µM.
Compound `CCCCC(=O)N1C/C=C\C(c2ccc(OC)cc2)N(Cc2ccc(F)cc2)C(=O)[C@H]1Cc1ccccc1` (some centres not stated) has an AC50 of 7.74 µM.
With `O=C(Nc1nc(-c2ccccn2)cs1)c1ccc(F)c(S(=O)(=O)N2CCOCC2)c1` the AC50 was 7.51 µM.
For `Cc1ccc2[nH]c(=O)c(C3C(C#N)=C(N)Oc4c3ccc3cccnc43)cc2c1` (configuration not stated), the AC50 was 4.74 µM.
`Cc1ccccc1/C=C/C(=O)c1ccc([N+](=O)[O-])o1` gave an AC50 of 5.07 µM.
With `O=[N+]([O-])c1ccc(NC(=S)NCCc2ccc(Cl)cc2)cc1` the AC50 was 8.12 µM.
`O=C(Nc1ccc(Cl)cc1)Nc1csc([N+](=O)[O-])c1` was tested, and the AC50 was 7.65 µM.
`Cc1cc(N/N=C\c2ccc(Br)cc2)nc(-n2nc(C)cc2C)n1` showed an AC50 of 21.5 µM.
For `COc1ccc(Cc2nc(-c3ccc(NC(=O)c4cccnc4)cc3)no2)cc1`, the AC50 was 0.286 µM.
`Cc1ccc(NC(=O)C2=C(c3ccccc3)S(=O)(=O)CCS2(=O)=O)cc1` gave an AC50 of 12.6 µM.
`Cc1ccc2nc(-c3ccc(-c4cccc(Cl)c4)cc3)c(NCc3ccccc3)n2c1` was tested, and the AC50 was 2.48 µM.
With `Cc1ccc(C2(c3ccc(C)cc3)CC2C(=O)Nc2ccc([N+](=O)[O-])cc2O)cc1` (configuration not stated) the AC50 was 3.79 µM.
Compound `c1ccc(CNc2nc(-c3ccccn3)nc3ccccc23)cc1` has an AC50 of 7.68 µM.
For `C#Cc1ccc([C@@H]2C=C(C(=O)N3CCN(Cc4ccccc4)CC3)O[C@H](OCCCCO)C2)cc1`, the AC50 was 2.13 µM.
In the case of `COC(=O)c1cc(=O)n(CCc2ccccc2F)c(=Nc2ccc(F)c(Cl)c2)s1`, the AC50 is reported as 11.1 µM.
For `Cc1nn(S(=O)(=O)c2ccc(Cl)cc2)c(C)c1Sc1ccc([N+](=O)[O-])cc1`, the AC50 was 7.69 µM.
Work on `c1ccc2c(c1)OCC(CNc1ncnc3sccc13)O2` (configuration not stated) yielded an AC50 of 1.6 µM.
Compound `Cc1nc2c(=O)n(C)c(=O)nc-2n(C)n1` has an AC50 of 2.06 µM.
With `O=C1/C(=N\S(=O)(=O)c2cccs2)C([n+]2cccc(Cc3ccccc3)c2)=C([O-])c2ccccc21` the AC50 was 7.28 µM.
`Cc1sc2ncnc(N3CCN(S(=O)(=O)c4ccc(C(C)(C)C)cc4)CC3)c2c1C` gave an AC50 of 4.17 µM.
